The values that follow come from patent US11020372B2, “Dietary and natural product management of negative side effects of cancer treatment” (UNIVERSITY OF FLORIDA RESEARCH FOUNDATION, INC., priority 2015, dated 2021).

Data set [1] concerns Mice. Description: Von Frey test of mechanosensitivity (chemotherapy-induced peripheral neuropathy). As to conditions: Von Frey filament 4 g; cumulative 25 mg/kg Paclitaxel, 40 mg/kg Oxaliplatin.
Procedure: Mechanosensitivity was compared between the different experimental groups. Von Frey test filament (4 g) was pressed to the plantar surface of the hindpaw until the filament just bent.
Animals were also tested for neuropathic pain using the Von Frey Test where the sensitivity of the animals to mechanical stimulus is measured. Similar to the cold allodynia assay, the animals were tested after cumulative doses of 25 mg/kg paclitaxel and 40 mg/kg oxaliplatin. Von Frey test filament (4 g) was pressed to the plantar surface of the hindpaw until the filament just bent. The percent positive response (i.e. paw withdrawal) was recorded.
In data set [2] the test system is Animals. Description: Chemotherapy-induced anemia (CBC: red blood cells, hematocrit, hemoglobin). Conditions: for anemia: level of red blood cell count, hemoglobin and hematocrit, chemotherapy agent alone: 20 mg/kg TMZ, 100 mg/kg 5-FU, 40 mg/kg oxaliplatin, two to four weeks; for hemoglobin level, chemotherapeutic agent alone: 100 mg/kg 5-FU or 40 mg/kg oxaliplatin. The protocol:
Animals were treated with three different chemotherapy agents inducing anemia (20 mg/kg TMZ, 100 mg/kg 5-FU, 40 mg/kg oxaliplatin). After two to four weeks of treatments blood was collected via retro-orbital puncture from the different experimental groups. Blood samples were processed for CBC.

Data set [3] deals with Animals. The experiment in a line: Chemotherapy-induced leukopenia (CBC: white blood cells, neutrophils). It is filed as in vivo. As to conditions: 20 mg/kg TMZ, 100 mg/kg 5-FU; two weeks. As to the method: Animals were treated with different chemotherapy agents inducing leukopenia (20 mg/kg TMZ, 100 mg/kg 5-FU). […] Blood samples were processed for CBC.
Data set [4] concerns neural stem cells. The experiment in a line: Neurosphere assay of periventricular cells from treated animals. In kind it is in vivo, Mice. As to conditions: TMZ [20 mg/kg] or 5-FU [100 mg/kg] for two weeks. As to the method:
A] Periventricular cells from the brains of animals treated with the indicated treatments were isolated and cultured in the neurosphere assay at clonal density to quantify clonogenic frequency. […] Chemotherapies induced a decline of neural stem cell activity seen by decreased neurosphere formation, which can be improved when combined with our treatment, **, ***, p<0.01, p<0.001, one-way ANOVA. B-C] […] D-E] NSC activity was also measured in the hippocampus, region of the brain involved in cognition.
Mice were fed with control diet or MCT/LC/Curcumin/EGCG/SFN diet. Each dietary group was treated with TMZ [20 mg/kg] or 5-FU [100 mg/kg] for two weeks, after which point brains were harvested and the cells from the periventricular region were cultured at clonal density in the neurosphere assay during one passage (7-14 days) to quantify the sphere forming frequency indicating neural stem cells occurrence in the brains of animals treated with the different treatments.

For another data set, the system named is rodents. As to conditions: oral doses as high as 500 mg/kg in rodents; cited from earlier work.
The subject of the next data set is dogs. Conditions: 500 mg/kg/day, divided dosage, pre-fed dogs, 13 weeks; cited from earlier work.
For data set [5], the system named is Mice. The experiment in a line: Paclitaxel-induced nephrotoxicity and hepatotoxicity (kidney and liver mass). It is filed as in vivo. As to conditions: Paclitaxel [5 mg/kg], 3-4 weeks of treatment. The protocol: Targeted toxicity of the chemotherapeutic agent Paclitaxel was assessed after 3-4 weeks of treatment via measuring the mass of the kidneys.
Toxicity was assessed after 3-4 weeks of treatment via comparing the mass of the liver.
After four weeks of treatments, the organs were harvested and their mass determined.

The subject of data set [6] is neural stem cells. Description: BrdU immunoreactivity of neural stem cells in sub-ventricular area and hippocampus. It is filed as in vivo, Mice. The protocol:
A] Periventricular cells from the brains of animals treated with the indicated treatments were isolated and cultured in the neurosphere assay at clonal density to quantify clonogenic frequency. […] B-C] […] D-E] NSC activity was also measured in the hippocampus, region of the brain involved in cognition.
A cohort of animals received three injections of BrdU [50 mg/kg] over a 72-hour time period before to be euthanized. Brains were removed, fixed, sectioned and BrdU antibodies used to identify cells that were in S-phase during the 72 hour injection period.

A further data set concerns healthy subjects. As to conditions: 5000 to 12,000 mg/day; cited from earlier work.
Data set [7] has as its system rats, guinea pigs and monkeys. As to conditions: cited from earlier work.
The subject of a further data set is neonatal rat. Conditions: cited from earlier work.
For data set [8] the following is noted: in vivo; cited from earlier work.
The subject of data set [9] is patients with type 2 diabetes. Conditions: provided by oral intake of 68 grams of broccoli sprouts; cited from earlier work.
The mark [10] stands for this setting: neonatal rat hypoxic-ischemic injury.

In the case of `O=C1[O][Pt]2([NH][C@@H]3CCCC[C@H]3[NH]2)[O]C1=O` [oxaliplatin, Oxaliplatin], the “mechanosensitivity (percent positive response, paw withdrawal), chemotherapy alone, FIG. 12” value in the data set with Mice [1] is given as “increased”. For the same compound, in the data set with Animals [2], the “anemia: level of red blood cell count, hemoglobin and hematocrit, chemotherapy agent alone” value is recorded as “induced anemia”; the “hemoglobin level, chemotherapeutic agent alone” value is on record as “significantly diminished”.

`Cn1nnc2c(C(N)=O)ncn2c1=O` [TMZ, Temozolomide]: the “leukopenia: level of white blood cell and neutrophil count, chemotherapy agent alone” value with Animals [3] is “induced leukopenia”. Further, the “sphere forming cells, chemotherapy agent alone” value with neural stem cells [4] is recorded as “decreased number of sphere forming cells”.

On to Epigallocatechin-3-gallate [EGCG], for which the “genotoxic or short term toxicity” value in the data set with rodents is “no genotoxic or short term toxicity”. In addition, the “adverse events or toxicity” value in the data set with dogs is “no adverse events or toxicity”.

Regarding `CC(=O)O[C@H]1C(=O)[C@@]2(C)[C@H]([C@H](OC(=O)c3ccccc3)[C@]3(O)C[C@H](OC(=O)[C@H](O)[C@@H](NC(=O)c4ccccc4)c4ccccc4)C(C)=C1C3(C)C)[C@]1(OC(C)=O)CO[C@@H]1C[C@@H]2O` [Paclitaxel], in the data set on Mice [5], the “mass of the kidneys, drug alone” value is “significant diminution of the kidney weight” and the “mass of the liver, drug alone” value was “significant liver enlargement”.

For the compound `O=c1[nH]cc(F)c(=O)[nH]1` [5-FU, Fluorouracil], the “NSC activity (BrdU immunoreactivity) in the sub-ventricular area (SVZ), single treatment versus control” value with neural stem cells [6] (diet alone or 5-FU alone) is given as “reduced level of BrdU+ve cells”. Further, the “number of BrdU-immunoreactive proliferating neural stem cells relative to controls” value in the data set with neural stem cells [6] (subventricular area and hippocampus, three BrdU injections [50 mg/kg] over 72 hours) was “less number of proliferating neural stem cells”. For the same compound, in the data set with Animals [2], the “anemia: level of red blood cell count, hemoglobin and hematocrit, chemotherapy agent alone” value is “induced anemia”; the “hemoglobin level, chemotherapeutic agent alone” value is “significantly diminished”. For the same compound, the “leukopenia: level of white blood cell and neutrophil count, chemotherapy agent alone” value in the data set with Animals [3] is on record as “induced leukopenia”. Moreover, the “sphere forming cells, chemotherapy agent alone” value in the data set on neural stem cells [4] is given as “decreased number of sphere forming cells”.

`COc1cc(/C=C/C(=O)CC(=O)/C=C/c2ccc(O)c(OC)c2)ccc1O` [curcumin, Curcumin]: the “adverse side effects in dose escalation” value in the data set on healthy subjects was “no significant adverse side effects”. Further, in data set [7], the “toxicity at high doses in preclinical models” value is reported as “safe”.

As to `C[S+]([O-])CCCCN=C=S` (centres unmarked) [SFN, sulforaphane], the infarct ratio result in the data set with neonatal rat (24 hours after hypoxic ischemia) is “reduced infarct ratio”. For the same compound, in the data set with neonatal rat (setting [10]), the “expression of the Nrf2 antioxidative transcription factor in the brain” value is “increased the expression of the Nrf2” and the “number of apoptotic cells” value was “significantly decreased the number of apoptotic cells”. In data set [8], the elimination result was “long terminal elimination phase” and the “time to peak plasma levels” value was at most 2 h. In addition, the safe non-toxic dose in data set [9] is on record as 100 mg.
